This is an account of results in ChEMBL document CHEMBL1151988, “Antineoplastic agents. 571. Total synthesis of bacillistatin 2” (2009).

One experiment relates to DU-145. The experiment in a line: Cytotoxicity against human DU145 cells. Type of experiment: functional.
The test system of the next experiment is P388. The experiment in a line: Cytotoxicity against mouse P388 cells. Type of experiment: functional. Conditions: read-out: ED50 (the source's name).

The structures appear in SMILES notation. ≈ marks a conversion by molar mass, not a printed value.

Regarding `CC[C@H](C)[C@@H](OC(=O)[C@@H](NC(=O)[C@H](C)OC(=O)[C@H](NC(=O)[C@H](OC(=O)[C@@H](NC(=O)[C@@H](C)OCc1ccccc1)C(C)C)[C@@H](C)CC)C(C)C)C(C)C)C(=O)N[C@@H](C(=O)OC(C)(C)C)C(C)C`, the GI50 in the experiment with DU-145 worked out at 10.5 µg/mL (≈ 11.3 µM).

Regarding `CC[C@H](C)[C@@H](OC(=O)[C@@H](NC(=O)[C@H](C)OCc1ccccc1)C(C)C)C(=O)N[C@@H](C(=O)O[C@@H](C)C(=O)N[C@H](C(=O)O[C@@H](C(=O)N[C@@H](C(=O)O[C@@H](C)C(=O)N[C@H](C(=O)O[C@H](CC(C)C)C(=O)N[C@@H](C(=O)OC(C)(C)C)C(C)C)C(C)C)C(C)C)[C@@H](C)CC)C(C)C)C(C)C`, the EC50 in the experiment on P388 came to 2.1 µg/mL (≈ 1.59 µM).

`CC[C@H](C)[C@@H](OC(=O)[C@@H](NC(=O)[C@H](C)O)C(C)C)C(=O)N[C@@H](C(=O)O[C@@H](C)C(=O)N[C@H](C(=O)O[C@@H](C(=O)N[C@@H](C(=O)O[C@@H](C)C(=O)N[C@H](C(=O)O[C@H](CC(C)C)C(=O)N[C@@H](C(=O)OC(C)(C)C)C(C)C)C(C)C)C(C)C)[C@@H](C)CC)C(C)C)C(C)C`: in the experiment with P388, the EC50 came out at 2 µg/mL (≈ 1.63 µM).

A word on the GI50: it is the concentration that inhibits growth by half. High values mean lower sensitivity of the cells, low ones greater sensitivity of the cells.
